Laboratory results: EP2982368A1, “Small molecule compounds displacing focal adhesion core components” (Universität Konstanz, priority 2014, dated 2016)

Legend:
Format in all cases: cell-based, mouse
paxillin = test: Paxillin displacement in GFP-FAK MEFs (antibody staining, live cell imaging of mKate-paxillin); details: 10 µM
Description: The C-terminal focal adhesion targeting domain of FAK binds to paxillin and talin and is responsible for an efficient recruitment of FAK to focal adhesions. Therefore, it was further investigated whether Mb31 targets FAK directly or possibly in an indirect way by displacement of FAK binding proteins paxillin or talin, respectively. GFP-FAK MEFs were treated with 10 µM of Mb31 and analyzed for paxillin and talin localization via antibody staining. […] To analyze whether FAK and paxillin displacement occur with the same temporal pattern GFP-FAK MEFs were transiently transfected to express mKate-tagged paxillin and living cells were imaged after application of 10 µM of Mb31. Along with FAK, paxillin delocalized rapidly and within 10 min almost no paxillin and FAK remained at focal adhesions. Strikingly, in cells over-expressing paxillin higher Mb31 concentrations were necessary in order to achieve efficient FAK displacement. In non-transfected cells already 4 to 5 µM Mb31 were sufficient, whereas in cells with strong over-expression of paxillin even at 10 µM FAK and paxillin displacement was only partial. […] Still, vinculin localization was not altered in FAK-deficient MEFs treated with Mb31.
MEFs were seeded on fibronectin fragment (4 µg/ml in PBS) in multi-well plates (Greiner Bio-One) and incubated for 4 h to allow spreading. Cells were fixed and permeabilized with MeOH at -20°C after pre-fixation with 4% paraformaldehyde. Cells were blocked with 10% CS in PBS (blocking buffer) and incubated with primary antibodies (α-talin, α-paxillin or α-vinculin) in blocking buffer for 1 h at room temperature. Cells were washed three times with PBS and were incubated with appropriate fluorescently labeled secondary antibodies. Cells were washed again with PBS to remove excess antibodies and were imaged using a Leica AF6000LX fluorescence microscope. To analyze reversibility compound treated cells were washed three times with pre-warmed growth medium. After washout cells were incubated 1 h in presence of 10 µg/ml cycloheximide. […]

talin = test: Talin-mCherry fluorescence recovery after photobleaching (FRAP); details: 10 µM
Description: Image J was used to automatically quantify FAK-containing focal adhesions due to local maxima of fluorescence intensity in the GFP-channel (5 to 70 pixel). The number of cells was automatically counted in the Hoechst channel. To test reproducibility of the system 40 control wells were quantified wherein four positions for each well were imaged. […] GFP-FAK mouse embryonic fibroblasts were seeded on fibronectin and incubated for 1 h with the indicated concentrations of the small compounds, respectively. […] GFP-FAK mouse embryonic fibroblasts were seeded on fibronectin and serum-starved overnight. The indicated concentrations of Mb31 were applied for 30 min. Cells were lysed and analyzed for paxillin and FAK protein level as well as FAK Tyr397 phosphorylation. […] The purified kinase domain of FAK was incubated with increasing amounts of Mb31 for 1 h at 30°C together with poly-Glu-Tyr as a FAK substrate. […] Cell viability was assessed by MTT assay. […] Migration was recorded from cells that were cultured without serum (A), with serum (B) or with serum in the presence of 3 µM Mb31 (C). […] Mouse embryonic fibroblasts (MEFs) were transfected with talin-mCherry and talin dynamics analyzed in focal adhesions using fluorescence recovery after photobleaching (FRAP). […] (C) Wound closure was microscopically analyzed and evaluated using ImageJ software. […]

GFP-FAK MEFs = test: Cell migration assay (single cell tracking, serum-stimulated); details: for cell velocity: serum-stimulated
Description: Image J was used to automatically quantify FAK-containing focal adhesions due to local maxima of fluorescence intensity in the GFP-channel (5 to 70 pixel). The number of cells was automatically counted in the Hoechst channel. To test reproducibility of the system 40 control wells were quantified wherein four positions for each well were imaged. […] GFP-FAK mouse embryonic fibroblasts were seeded on fibronectin and incubated for 1 h with the indicated concentrations of the small compounds, respectively. […] GFP-FAK mouse embryonic fibroblasts were seeded on fibronectin and serum-starved overnight. The indicated concentrations of Mb31 were applied for 30 min. Cells were lysed and analyzed for paxillin and FAK protein level as well as FAK Tyr397 phosphorylation. […] The purified kinase domain of FAK was incubated with increasing amounts of Mb31 for 1 h at 30°C together with poly-Glu-Tyr as a FAK substrate. […] Serum-starved GFP-FAK mouse embryonic fibroblasts were stimulated with normal growth medium and incubated for 5 h with the indicated concentrations of the small molecule compounds, respectively. Cell viability was assessed by MTT assay. […] GFP-FAK MEFs were seeded on fibronectin and serum-starved overnight. Migration was stimulated by replacing the medium with normal growth medium. Migration of single cells was tracked for 8 h in 30 min intervals. Migration was recorded from cells that were cultured without serum (A), with serum (B) or with serum in the presence of 3 µM Mb31 (C). […] (A) GFP-FAK MEFs were seeded and serum-starved as in Figure 10. Cell migration was stimulated with normal growth medium and single cells were tracked for 5 h. […] Mouse embryonic fibroblasts (MEFs) were transfected with talin-mCherry and talin dynamics analyzed in focal adhesions using fluorescence recovery after photobleaching (FRAP). […] (C) Wound closure was microscopically analyzed and evaluated using ImageJ software.
To further determine whether Mb31 interferes with cell motility, GFP-FAK MEFs were serum-stimulated and migration was quantified on a single cell basis (Figures 11 and 12). […]

O=[N+]([O-])C=Cc1cc(Br)cs1 [FootLocker 1, 4-bromo-2-(2-nitrovinyl)thiophene]
FAK and paxillin displacement in cells with strong over-expression of paxillin (paxillin): only partial
paxillin localization (paxillin; 30 min, antibody staining): displaced from focal adhesions
time until almost no paxillin and FAK remained at focal adhesions (paxillin; living cells expressing mKate-tagged paxillin): ≤ 10 min
talin-associated fluorescence recovery at bleached focal adhesions (talin): did not recover
cell velocity after treatment of migrating cells (GFP-FAK MEFs; added after 5 h tracking, 3 µM or more, further 5 h): 0.11 µm/min
cell velocity (GFP-FAK MEFs; 2 µM): 0.11 µm/min
cell velocity (GFP-FAK MEFs; 3 µM): 0.07 µm/min
